# According to PubChem BioAssay AID1963845 (Molecular Pharmacology Branch, DTP, NCI, 2024):
# “And” between values parts separate entries of the source, which are not always exact repeats. Equal values may be shown once.
# Tested on: 429239-143-T-J1-PDC complex spheroid viability
# Test: Anticancer human tumor 429239-143-T-J1-PDC patient-derived small cell lung carcinoma cell line growth inhibition [POLQ]
# Conditions: for viability, T/C: stronger effect = lower value
# Method: Multicellular complex tumor spheroid response to Polymerase (POL) inhibitors (novobiocin, ART-558, RP6685) in combination with a variety of drugs and investigational agents in selected tumor cell lines
# The POL inhibitors (novobiocin, ART-558, and RP6685) were evaluated both individually and in combination with standard of care and investigational anticancer small molecules within a complex spheroid model of solid tumors. . Complex spheroids include a stromal component modeled by human endothelial cells (HUVEC) and fibroblasts modeled by human mesenchymal stem cells (MSCs). The concentration ranges selected for each drug and investigational agent were based upon clinically achievable concentrations if the clinical Cmax of the agent was known.
# Compounds. The drugs and investigational agents: novobiocin (NSC847541), ART-558 (NSC835418), RP-6685 (NSC848927), peposertib (NSC802822), ceralasertib (NSC780249), elimusertib (NSC800525), camonsertib (NSC841442), AZD-1390 (NSC803789), olaparib (NSC753686), talazoparib (NSC767125), rucaparib (NSC756644), sotorasib (NSC818433), MRTX-1133 (NSC836407), SN-38 (NSC673596), topotecan (NSC609699), epotoside (NSC141540), doxorubicin (NSC123127), gemcitabine (NSC613327), 5-fluorouracil (NSC19893), paclitaxel (NSC125973), vemurafenib (NSC761431), MSA-2 (NSC828583), SN-011 (NSC837082), adavosertib (NSC754352), prexasertib (NSC758257), carboplatin (NSC241240) and oxaliplatin (NSC266046), were obtained from the National Cancer Institute (NCI) Developmental Therapeutics Program Chemical Repository (21). The FDA-approved anticancer drug set is available from the Developmental Therapeutics Program at https://dtp.cancer.gov/organization/dscb/obtaining/. […] The stock solutions were prepared in dimethyl sulfoxide (DMSO, Sigma-Aldrich, St. Louis, MO, cat. D2650), except for the platinum compounds which were prepared in saline (Quality Biological, Gaithersburg, MD, cat. 114-055-101), at 800-fold the tested concentration and stored at -70 degrees C prior to their use. All drugs and investigational agents were tested over a range starting from a high concentration at or near the clinical Cmax and decreasing in half-log increments. If the clinical Cmax for an agent had not been determined, the highest concentration tested was 10 microM, except for SN-38, which was tested at a high concentration of 1 microM.
# Cell Culture. All cells were maintained in an incubator at 37 degrees C and 5% CO2 with 95% humidity. The PDC lines were cultured according to standard operating procedures established by the NCI PDMR (https://pdmr.cancer.gov). Table 3 of the manuscript, lists the cell lines along with the number of the three cell types plated to form the mct-spheroids and media for tumor cell growth. After thawing, all PDC lines, except 997537-175-T-J1-PDC and 415267-285-R-J2-PDC, were cultured in Matrigel-coated flasks prepared with a working solution of 1X Ham's F-12 nutrient mix, without supplementation (Thermo Fisher Scientific, cat. 11765054), 100 U/mL penicillin-streptomycin (Thermo Fisher Scientific, cat. 15140122), and 2.5% Matrigel (Corning Inc., Corning, NY, cat. 354248) for the first three passages. The two PDC lines 997537-175-T-J1-PDC and 415267-285-R-J2-PDC were cultured on uncoated flasks. The 857933-349-R-J2-PDC line was cultured in 6C/Colon 1B media containing advanced DMEM/F-12 (Thermo Fisher Scientific, cat. 12634028), 10 mM HEPES (Thermo Fisher Scientific, cat. 15630080), 1X GlutaMAX supplement (Thermo Fisher Scientific, cat. 35050061), 0.1 mg/mL primocin (InvivoGen, San Diego, CA, cat. ant-pm-2), 10% defined fetal bovine serum, heat inactivated (HyClone Laboratories Inc., Logan, UT, cat. SH30070.03HI), 50% L-WRN conditioned media (ATCC, cat. CRL-3276), 1.25 mM N-Acetyl-L-cysteine (Sigma-Aldrich, cat. A9165), 10 mM nicotinamide (Sigma-Aldrich, cat. N0636), 1X B-27 supplement (Thermo Fisher Scientific, cat. 17504044), 1X N-2 supplement (Thermo Fisher Scientific, cat. […]
# [1] = compound alone, run of 01/19/2024
# 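Also: luminescence signal used as surrogate measure of viable cells; spheroids exposed to compounds for seven days before readout.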
# 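For viability, T/C in this document: 100% = DMSO vehicle control viability as luminescence relative to vehicle.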
smiles,measurement,setting,value
CCCS(=O)(=O)Nc1ccc(F)c(C(=O)c2c[nH]c3ncc(-c4ccc(Cl)cc4)cc23)c1F,"viability, T/C",compound 0.0316 µM,94.3% and 101% and 99.8%
same,"viability, T/C",compound 0.1 µM,96.1% and 110% and 85.9%
same,"viability, T/C",compound 0.316 µM,100% and 104% and 94.3%
same,"viability, T/C",compound 1 µM,92.9% and 106% and 89.7%
same,"viability, T/C",compound 3.16 µM,97.2% and 113% and 91%
same,"viability, T/C",compound 10 µM,79.2% and 84.4% and 48.5%
same,IC50,curve of compound,> 10000 nM and 9610 nM
COc1cccc2c1C(=O)c1c(O)c3c(c(O)c1C2=O)CC(O)(C(=O)CO)CC3OC1CC(N)C(O)C(C)O1 (stereo not drawn) + Cc1cccc(N(C)C(=O)C2C(O)CCN2c2nc(C)cc(C(F)(F)F)c2C#N)c1,IC50,"curve of first compound, second compound 0.0316 µM",56.5 nM
same,IC50,"curve of first compound, second compound 0.1 µM",57.9 nM
same,IC50,"curve of first compound, second compound 0.316 µM",47.8 nM
same,IC50,"curve of first compound, second compound 1 µM",43.8 nM
same,IC50,"curve of first compound, second compound 3.16 µM",46.9 nM
same,IC50,"curve of first compound, second compound 10 µM",45.2 nM
same,"viability, T/C","second compound 0.0316 µM, first compound 0.0316 µM",83.3%
same,"viability, T/C","second compound 0.0316 µM, first compound 0.1 µM",15.2%
same,"viability, T/C","second compound 0.0316 µM, first compound 0.316 µM",12.4%
same,"viability, T/C","second compound 0.0316 µM, first compound 1 µM",0.22%
same,"viability, T/C","second compound 0.0316 µM, first compound 3.16 µM",0.12%
same,"viability, T/C","second compound 0.0316 µM, first compound 10 µM",0.13%
same,"viability, T/C","second compound 0.1 µM, first compound 0.0316 µM",84.9%
same,"viability, T/C","second compound 0.1 µM, first compound 0.1 µM",15.6%
same,"viability, T/C","second compound 0.1 µM, first compound 0.316 µM",14.7%
same,"viability, T/C","second compound 0.1 µM, first compound 1 µM",0.15%
same,"viability, T/C","second compound 0.1 µM, first compound 3.16 µM",0.11%
same,"viability, T/C","second compound 0.1 µM, first compound 10 µM",0.09%
same,"viability, T/C","second compound 0.316 µM, first compound 0.0316 µM",69.1%
same,"viability, T/C","second compound 0.316 µM, first compound 0.1 µM",14.3%
same,"viability, T/C","second compound 0.316 µM, first compound 0.316 µM",11.2%
same,"viability, T/C","second compound 0.316 µM, first compound 1 µM",0.17%
same,"viability, T/C","second compound 0.316 µM, first compound 3.16 µM",0.16%
same,"viability, T/C","second compound 0.316 µM, first compound 10 µM",0.11%
same,"viability, T/C","second compound 1 µM, first compound 0.0316 µM",62.7%
same,"viability, T/C","second compound 1 µM, first compound 0.1 µM",16%
same,"viability, T/C","second compound 1 µM, first compound 0.316 µM",14.7%
same,"viability, T/C","second compound 1 µM, first compound 1 µM",0.15%
same,"viability, T/C","second compound 1 µM, first compound 3.16 µM",0.13%
same,"viability, T/C","second compound 1 µM, first compound 10 µM",0.09%
same,"viability, T/C","second compound 3.16 µM, first compound 0.0316 µM",68.1%
same,"viability, T/C","second compound 3.16 µM, first compound 0.1 µM",13.6%
same,"viability, T/C","second compound 3.16 µM, first compound 0.316 µM",12.1%
same,"viability, T/C","second compound 3.16 µM, first compound 1 µM",0.14%
same,"viability, T/C","second compound 3.16 µM, first compound 3.16 µM",0.25%
same,"viability, T/C","second compound 3.16 µM, first compound 10 µM",0.15%
same,"viability, T/C","second compound 10 µM, first compound 0.0316 µM",63.8%
same,"viability, T/C","second compound 10 µM, first compound 0.1 µM",17.8%
same,"viability, T/C","second compound 10 µM, first compound 0.316 µM",14.5%
same,"viability, T/C","second compound 10 µM, first compound 1 µM",0.17%
same,"viability, T/C","second compound 10 µM, first compound 3.16 µM",0.25%
same,"viability, T/C","second compound 10 µM, first compound 10 µM",0.2%
CNCc1ccc(-c2[nH]c3cc(F)cc4c3c2CCNC4=O)cc1,"viability, T/C",compound 0.0316 µM,87.2% and 101% and 90.9%
same,"viability, T/C",compound 0.1 µM,82.5% and 98.5% and 90.4%
same,"viability, T/C",compound 0.316 µM,76.4% and 92.6% and 91.3%
same,"viability, T/C",compound 1 µM,75.4% and 90% and 68.9%
same,"viability, T/C",compound 3.16 µM,49.1% and 76.2% and 44.9%
same,"viability, T/C",compound 10 µM,25% and 30% and 21.1%
same,IC50,curve of compound,3170 nM and 6000 nM and 2430 nM
CC1COCCN1c1cc(C2(O)CC3CCC(C2)O3)c2cnn(-c3ccn[nH]3)c2n1 (stereo not drawn),"viability, T/C",compound 0.0316 µM,67.2% and 61.1% and 90.8%
same,"viability, T/C",compound 0.1 µM,45.3% and 34.4% and 78.8%
same,"viability, T/C",compound 0.316 µM,17.6% and 17% and 52.5%
same,"viability, T/C",compound 1 µM,10.2% and 7.95% and 6.96%
same,"viability, T/C",compound 3.16 µM,9.58% and 7.43% and 2.96%
same,"viability, T/C",compound 10 µM,4.72% and 5.39% and 2.25%
same,IC50,curve of compound,77.6 nM and 51 nM and 324 nM
C=CC(=O)N1CCN(c2nc(=O)n(-c3c(C)ccnc3C(C)C)c3nc(-c4c(O)cccc4F)c(F)cc23)C(C)C1 (stereo not drawn),"viability, T/C",compound 0.0316 µM,96.4% and 97.7% and 104%
same,"viability, T/C",compound 0.1 µM,100% and 103% and 90.4%
same,"viability, T/C",compound 0.316 µM,98.7% and 103% and 101%
same,"viability, T/C",compound 1 µM,105% and 101% and 102%
same,"viability, T/C",compound 3.16 µM,114% and 103% and 113%
same,"viability, T/C",compound 10 µM,112% and 102% and 108%
same,IC50,curve of compound,> 10000 nM
Nc1ccc(C#CCN(C(=O)Cc2ncc(C(F)(F)F)cc2C(F)(F)F)c2ccc(F)cc2)nn1,"viability, T/C",compound 0.0316 µM,100% [middle of 13 runs]
same,"viability, T/C",compound 0.1 µM,103% [middle of 13 runs]
same,"viability, T/C",compound 0.316 µM,99.6% [middle of 13 runs]
same,"viability, T/C",compound 1 µM,101% [middle of 13 runs]
same,"viability, T/C",compound 10 µM,107% [middle of 13 runs]
same,IC50,[1],> 10000 nM
Cc1cccc(N(C)C(=O)C2C(O)CCN2c2nc(C)cc(C(F)(F)F)c2C#N)c1 (stereo not drawn),"viability, T/C",compound 0.0316 µM,103% [middle of 13 runs]
same,"viability, T/C",compound 0.1 µM,102% [middle of 13 runs]
same,"viability, T/C",compound 0.316 µM,98% [middle of 13 runs]
same,"viability, T/C",compound 1 µM,100% [middle of 13 runs]
same,"viability, T/C",compound 3.16 µM,104% [middle of 13 runs]
same,"viability, T/C",compound 10 µM,106% [middle of 13 runs]
same,IC50,"compound alone, run of 01/08/2024",> 10000 nM
same,IC50,[1],> 10000 nM
COc1cc2cc(C(=O)CCC(=O)O)sc2cc1OC,"viability, T/C",compound 0.0316 µM,92.3% and 91.8% and 112%
same,"viability, T/C",compound 0.1 µM,105% and 102% and 92.5%
same,"viability, T/C",compound 0.316 µM,94.3% and 97.6% and 97.8%
same,"viability, T/C",compound 1 µM,108% and 109% and 97.7%
same,"viability, T/C",compound 3.16 µM,108% and 107% and 97.8%
same,"viability, T/C",compound 10 µM,97.3% and 104% and 87.3%
same,IC50,curve of compound,> 10000 nM
CC1COCCN1c1cc(C2(S(C)(=N)=O)CC2)nc(-c2ccnc3[nH]ccc23)n1 (stereo not drawn),"viability, T/C",compound 0.0316 µM,106% and 91.7% and 104%
same,"viability, T/C",compound 0.1 µM,99.9% and 108% and 91.8%
same,"viability, T/C",compound 0.316 µM,94.5% and 93.5% and 97.2%
same,"viability, T/C",compound 1 µM,70.8% and 83.8% and 71.7%
same,"viability, T/C",compound 3.16 µM,41.6% and 77.8% and 42.5%
same,"viability, T/C",compound 10 µM,16.7% and 45.8% and 16.9%
same,IC50,curve of compound,2270 nM and 8700 nM and 2350 nM
